According to ChEMBL document CHEMBL1148227, “Biosynthesis of vitamin B6: direct identification of the product of the PdxA-catalyzed oxidation of 4-hydroxy-l-threonine-4-phosphate using electrospray ionization mass spectrometry” (Bioorg Med Chem Lett, 2004):

What was measured:
Type in all cases: ADME
Conditions in all cases: buffer
[1] = Half life at pH 5.9
[2] = Half life at pH 8.1
[3] = Half life at pH 7.8

| half-life [1] [min] | half-life [2] [min] | half-life [3] [min] | SMILES |
| --- | --- | --- | --- |
| 8.57 | 15.2 | – | CC(=O)C(N)C(=O)O (stereo not drawn) |
| – | – | 10 | NC(C(=O)O)C(=O)COP(=O)(O)O (stereo not drawn) |
